pIC50, pKi: −log10 of the molar value. Where “and” joins values, the source holds several entries; their conditions need not be identical. Equal entries are not always repeated. Where two headings read alike, the source gives them in different places.
Columns and labels:
[1] = target: SARS-CoV-2 NSP3 macrodomain (Mac1) (Severe acute respiratory syndrome coronavirus 2, UniProt P0DTD1); assay: biochemical; type: binding
[2] = target: SARS-CoV-2 NSP3 macrodomain (Mac1), P43 crystal form (Severe acute respiratory syndrome coronavirus 2, UniProt P0DTD1); type: binding; conditions: for 1-BDC: PanDDA background density correction; for Pandda run, overall: Modeled / Pandda run, overall: Hit: crystal soak; for Pandda run, overall: Hit: TRUE = ligand hit; for Total number of conformations: ligand conformations modeled in Mac1 crystal structure; for 2*(1-BDC) (%): occupancy estimate from PanDDA 1-BDC
[3] = Single dose, concentration 200 μM, read-out: Average % competition
[4] = preliminary screen, compound at 200 μM, mean of 3-4 technical replicates, read-out: % competition in HTRF assay
[5] = ligand modeling in Mac1 crystal soak
[6] = ligand modeling in Mac1 crystal structure

| Structure (SMILES) | inhibition at 200 µM [1, 3] [%] | inhibition at 200 µM [1, 4] [%] | Number of isomers bound [2, 5] | PanDDA run, TFA/DMSO background map: 1-BDC ([2]; crystal soak 10 mM) | PanDDA run, TFA/DMSO background map: Hit ([2]; crystal soak 10 mM) | also measured |
| --- | --- | --- | --- | --- | --- | --- |
| CCC1(O)CCN(c2ncnc3[nH]ccc23)C1 (stereo not drawn) [AVI-612] | 22 | 22 | 1 |  |  |  |
| O[C@@H]1CN(c2ncnc3[nH]ccc23)C[C@H]1F [AVI-616] | 15 | 15 | 1 |  |  |  |
| O[C@H]1COC[C@@H]1Nc1ncnc2[nH]ccc12 [AVI-1444, (3R,4S)-4-((7H-pyrrolo[2,3-d]pyrimidin-4-yl)amino)tetrahydrofuran-3-ol] |  |  | 1 |  |  |  |
| CC(C)(O)[C@@H]1CCCN1c1ncnc2[nH]ccc12 [AVI-1445, (S)-2-(1-(7H-pyrrolo[2,3-d]pyrimidin-4-yl)pyrrolidin-2-yl)propan-2-ol] |  | 75 | 1 |  |  | fold decrease in affinity compared to AVI-607 ([1]; HTRF): ~ 5 fold; Hill slope ([1]; HTRF dose-response fit, Mac1): 1.1; inhibition at 200 µM ([1]; Single dose, concentration 200 μM, read-out: SARS CoV-2 macrodomain HTRF assay: Average % competition): 75%; SARS CoV-2 macrodomain HTRF assay: Hillslope ([1]; dose-response fit): 1.6; pKi ([1]; dose-response, read-out: SARS CoV-2 macrodomain HTRF assay: Ki): 4.00; Ligand efficiency (binding enery per heavy atom) ([1]; from SARS CoV-2 macrodomain HTRF assay): 0.31; pIC50 ([1]; read-out: HTRF IC50): 3.96; 1-BDC [2]: 0.12; Pandda run, overall: Modeled ([2]; soak concentration 10 mM): TRUE; Pandda run, overall: Hit ([2]; soak concentration 10 mM): TRUE; Total number of conformations [2]: 1; 2*(1-BDC) (%) [2]: 24%; X-ray crystallography: Binding site ([2]; site where the ligand is bound in the X-ray crystal structure): Adenosine; PanDDA run, DMSO background map: 1-BDC ([2]; soak concentration 10 mM): 0.12; PanDDA run, DMSO background map: Hit ([2]; soak concentration 10 mM): TRUE; PanDDA run, TFA/DMSO background map: 1-BDC ([2]; soak concentration 10 mM): 0.12; PanDDA run, TFA/DMSO background map: Hit ([2]; soak concentration 10 mM): TRUE |
| Cc1c[nH]c2ncnc(NCC3(O)CCC3)c12 [AVI-3571, 1-(((5-methyl-7H-pyrrolo[2,3-d]pyrimidin-4-yl)amino)methyl)cyclobutan-1-ol] |  |  | 1 |  |  | Hill slope ([1]; HTRF dose-response fit, Mac1): 1.0; Ligand efficiency (binding enery per heavy atom) ([1]; SARS CoV-2 macrodomain HTRF assay): 0.39; Hill slope ([1]; SARS CoV-2 macrodomain HTRF assay, dose-response): 1.0; pIC50 ([1]; SARS CoV-2 macrodomain HTRF assay, dose-response, read-out: IC50): 4.82; pKi ([1]; SARS CoV-2 macrodomain HTRF assay, dose-response, read-out: Ki): 4.85; 1-BDC [2]: 0.15; X-ray crystal structure ([2]; X-ray crystal structure determined (TRUE)): TRUE; Pandda run, overall: Modeled ([2]; soak concentration 10 mM): TRUE; Pandda run, overall: Hit ([2]; soak concentration 10 mM): TRUE; Total number of conformations [2]: 2; 2*(1-BDC) (%) [2]: 30%; Binding site ([2]; site of ligand in X-ray crystal structure): Adenosine; PanDDA run, DMSO background map: 1-BDC ([2]; soak concentration 10 mM): 0.15 and 0.2; PanDDA run, DMSO background map: Hit ([2]; soak concentration 10 mM): TRUE; Isomers modeled ([2]; stereoisomer(s) of ligand modeled in Mac1 crystal structure): achiral,achiral |
| CCC(Nc1ncnc2[nH]ccc12)C(C)O (stereo not drawn) [AVI-3635] | 54 | 54 | 1 | 0.08 | TRUE | PanDDA run, TFA/DMSO background map: 1-BDC ([2]; soak concentration 10 mM): 0.11; PanDDA run, TFA/DMSO background map: Hit ([2]; soak concentration 10 mM): TRUE |
| OCC(CC(F)(F)F)Nc1ncnc2[nH]ccc12 (stereo not drawn) [AVI-3637] | 50 | 50 | 1 |  |  | PanDDA run, TFA/DMSO background map: 1-BDC ([2]; soak concentration 10 mM): 0.21; PanDDA run, TFA/DMSO background map: Hit ([2]; soak concentration 10 mM): TRUE |
| OCC(Nc1ncnc2[nH]ccc12)C1CCC1 (stereo not drawn) [AVI-3638] | 77 | 77 | 1 | 0.1 | TRUE |  |
| O=C(O)C(F)(F)F.O[C@H]1CCC[C@@H]1Nc1ncnc2[nH]ccc12 [AVI-3639] | 74 | 74 | 1 | 0.09 | TRUE |  |
| OCC(CC1CCC1)Nc1ncnc2[nH]ccc12 (stereo not drawn) [AVI-3641] | 32 | 32 | 1 | 0.11 | TRUE |  |
| OCC(CC(O)c1ccccc1)Nc1ncnc2[nH]ccc12 (stereo not drawn) [AVI-3642] | < 10 | < 10 | 1 | 0.17 | TRUE |  |
| CCC(CO)Nc1ncnc2[nH]ccc12 (stereo not drawn) [AVI-3643] | 63 | 63 | 1 | 0.14 | TRUE |  |
| C#CCC(CO)Nc1ncnc2[nH]ccc12 (stereo not drawn) [AVI-3644] | 43 | 43 | 1 | 0.11 | TRUE |  |
| OC1CCCN(c2ncnc3[nH]ccc23)C1 (stereo not drawn) [AVI-3646] | 20 | 20 | 1 | 0.13 | TRUE |  |
| CC(C)(C)CC(CO)Nc1ncnc2[nH]ccc12 (stereo not drawn) [AVI-3648] | 27 | 27 | 1 | 0.16 | TRUE |  |
| OCC(Nc1ncnc2[nH]ccc12)C1CCCC1 (stereo not drawn) [AVI-3649] | 68 | 68 | 1 | 0.11 | TRUE |  |
| Cc1c[nH]c2ncnc(NCC3(O)CCC(O)CC3)c12 (stereo not drawn) [AVI-4329] |  |  |  |  |  | Number of isomers bound [2, 6]: 1; Isomers modeled ([2]; stereoisomer(s) modeled in Mac1 crystal structure): rr,rr |
| CC(C)(C)C1CCCN1c1ncnc2[nH]ccc12 (stereo not drawn) [AVI-6000] |  |  |  |  |  | Number of isomers bound [2, 6]: 1 |
